# Assay results as given in patent publication US6479067B2, “Methods for treating ovarian cancer, poly (phosphoester) compositions, and biodegradable articles for same” (Guilford Pharmaceuticals, Inc., priority 1999, dated 2002).
# Where a name gives a salt, the structure may show the parent alone. Read-outs that look alike come from different tables or passages of the source.
# Legend:
# [1] = Subcutaneous injection: implant site macrophage counts and irritation scores; format: in vivo, male S-D rats; settings: s.c.
# [2] = for Paclitaxel Concentration (plasma): 120 mg/kg i.p.
# [3] = system: melanoma cell line B16/F10
# [4] = 0.7 ml (polymers 89 mg/kg), 7 Day
# [5] = 0.7 ml (polymers 89 mg/kg), 14 Day
# [6] = 0.7 ml (polymers 89 mg/kg), 31 Day
# [7] = 2.0 ml (polymers 267 mg/kg), 7 Day
# [8] = 2.0 ml (polymers 267 mg/kg), 14 Day
# [9] = 2.0 ml (polymers 267 mg/kg), 31 Day
# [10] = 28 days, formulation injected on Day 3
# [11] = 28 days, formulation injected on Day 7
# [12] = 42 days, formulation injected on Day 3
# [13] = 42 days, formulation injected on Day 7
smiles,measurement,setting,value
CC(=O)O [Acetic Acid],# = Mean count (implant site macrophages),[1]; [4],208
same,Irritation,[1]; [4],Mild (200-400 Mild Irritation)
same,# = Mean count (implant site macrophages),[1]; [5],166
same,Irritation,[1]; [5],Sl. (0-200 Slight Irritation)
same,# = Mean count (implant site macrophages),[1]; [6],20
same,Irritation,[1]; [6],Sl. (0-200 Slight Irritation)
same,# = Mean count (implant site macrophages),[1]; [7],267
same,Irritation,[1]; [7],Mild (200-400 Mild Irritation)
same,# = Mean count (implant site macrophages),[1]; [8],334
same,Irritation,[1]; [8],Mild (200-400 Mild Irritation)
same,# = Mean count (implant site macrophages),[1]; [9],32
same,Irritation,[1]; [9],Sl. (0-200 Slight Irritation)
"CC(=O)O[C@H]1C(=O)[C@@]2(C)[C@H]([C@H](OC(=O)c3ccccc3)[C@]3(O)C[C@H](OC(=O)[C@H](O)[C@@H](NC(=O)c4ccccc4)c4ccccc4)C(C)=C1C3(C)C)[C@]1(OC(C)=O)CO[C@@H]1C[C@@H]2O [Paclitaxel w/o polymer, paclitaxel]",Paclitaxel Concentration (plasma),[2]; 14 days,Animal died
same,Paclitaxel Concentration (plasma),[2]; 28 days,Animal died
same,Tolerability,[2]; comparable dose given intraperitoneally,could not tolerate the dose
"COc1cccc2c1C(=O)c1c(O)c3c(c(O)c1C2=O)C[C@@](O)(C(=O)CO)C[C@@H]3O[C@H]1C[C@H](N)[C@H](O)[C@H](C)O1 [Bolus Dox, doxorubicin hydrochloride]",Number of Mice Survived,[3]; [10],8
same,Tumor Volume (mm^3 ± SEM) After Tumor Injection,[3]; [10],1218.9 ± 304.1 mm^3
same,Number of Mice Survived,[3]; [11],8
same,Tumor Volume (mm^3 ± SEM) After Tumor Injection,[3]; [11],1661.2 ± 301.8 mm^3
same,Number of Mice Survived,[3]; [12],5
same,Tumor Volume (mm^3 ± SEM) After Tumor Injection,[3]; [12],3942.5 ± 1818 mm^3
same,Number of Mice Survived,[3]; [13],3
same,Tumor Volume (mm^3 ± SEM) After Tumor Injection,[3]; [13],4394.3 ± 741.3 mm^3
same,Early death after injection,[3]; about 3-4 days after the injections,did not produce early death
